Data: patent US9765069B2, “Antimicrobial compounds” (OXFORD UNIVERSITY INNOVATION LIMITED, priority 2012, dated 2017)
Converted amounts (≈) assume the structure as drawn. Like-named read-outs stand apart in the source and are kept apart here.

Assays:
all strains = experiment: MIC determination (bacteria), whole strain panel of Table 2; assay type: cell-based
Method: MIC determination (bacteria); MICs were determined based on Clinical and Laboratory Standards Institute (CLSI) methodology (Methods for dilution antimicrobial susceptibility tests for bacteria that grow aerobically; Approved Standard—seventh edition. 2006, M7-A7, CLSI, Wayne Pa.) by a 2-fold broth dilution technique in Mueller Hinton (pH7.4 Biorad). For S. pneumoniae, the medium was supplemented with 2.5% laked horse blood. For H. influenzae, the medium was haemophilus test medium (H.T.M.). Overnight cultures were diluted to obtain the final inoculum of 10^5 cfu/well. Incubation was 37° C. overnight in ambient air. The MIC was defined as the lowest concentration which inhibited all visual growth and expressed in μg/ml. For each bacterial species, all of the molecules were tested in the same experiment in order to give a head-to-head comparison.

E. Coli RNAP = E. Coli RNAP (Escherichia coli, UniProt P0A8T7+P0A8V2); experiment: In vitro activity against E. Coli RNAP; assay type: biochemical
Source text: (§1) These properties can be determined according to techniques that are well known in the art.

H4 = experiment: MIC determination (bacteria), strain H4; assay type: cell-based, H. influenzae; settings: haemophilus test medium; for MIC: Haemophilus influenzae, Table 2 and its footnote f; for MIC H4: Table 1
Summary of the method: (§2)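 Inhibition of all visible growth after overnight incubation at 37° C in ambient air defines the MIC, given in μg/ml. Wells held 10^5 cfu of bacteria in 2-fold diluted compound in Mueller Hinton (pH7.4), laked horse blood-supplemented for S. pneumoniae or haemophilus test medium for H. influenzae.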

S1 = experiment: MIC determination (bacteria), strain S1; assay type: cell-based, S. aureus; settings: 2-fold broth dilution; for MIC: Staphylococcus aureus, Table 2; for MIC S1: Table 1
Summary of the method: as §2

[1] = test system: S2 (S. aureus 2, MRSA in vivo); experiment: MIC determination (bacteria), strain S2; assay type: cell-based; settings: 2-fold broth dilution; for MIC: Staphylococcus aureus, MRSA, Table 2; for MIC S2: Table 1
Summary of the method: as §2

[2] = test system: human embryonic kidney 293 cells; experiment: in vitro toxicities against human embryonic kidney 293 cells; assay type: cell-based
Source text: as §1

S26 = experiment: MIC determination (bacteria), strain S26; assay type: cell-based, S. aureus; settings: 2-fold broth dilution; for MIC: Staphylococcus aureus, Table 2; for MIC S26: Table 1
Summary of the method: as §2

P9B = experiment: MIC determination (bacteria), strain P9B; assay type: cell-based, S. pneumoniae; settings: 2-fold broth dilution; for MIC: Streptococcus pneumoniae, Table 2; for MIC P9B: Table 1
Summary of the method: as §2

P9 = experiment: MIC determination (bacteria), strain P9; assay type: cell-based, S. pneumoniae; settings: 2-fold broth dilution; for MIC: Streptococcus pneumoniae, Table 2; for MIC P9: Table 1
Summary of the method: as §2

P1 = experiment: MIC determination (bacteria), strain P1; assay type: cell-based, S. pneumoniae; settings: 2-fold broth dilution; for MIC: Streptococcus pneumoniae, Table 2; for MIC P1: Table 1
Summary of the method: as §2

[3] = aqueous solubility at pH 7.4; assay type: physicochemical; settings: aqueous solubility at pH 7.4 (water with 2% DMSO)
Source text: as §1

[4] = test system: human peripheral blood cells; experiment: in vitro toxicities human peripheral blood cells; assay type: cell-based
Source text: as §1

[5] = test system: mammalian_red blood cell membrane; experiment: In vitro mammalian red blood cell membrane lysis activity; assay type: cell-based; settings: Active or inactive at 100 μM
Source text: as §1

H3 = experiment: MIC determination (bacteria), strain H3; assay type: cell-based, H. influenzae; settings: haemophilus test medium; for MIC: Haemophilus influenzae, Table 2; for MIC H3: Table 1
Summary of the method: as §2

E2 = experiment: MIC determination (bacteria), strain E2; assay type: cell-based, enterococcus; settings: 2-fold broth dilution; for MIC: Enterococcus, Table 2; for MIC E2: Table 1
Summary of the method: as §2

S. aureus membrane = experiment: In vitro activity in depolarization of S. aureus membrane; assay type: cell-based; settings: read-out: DEP (IC50)
Source text: as §1

[6] = test system: Hek293 / PMBC versus S. aureus 2, MRSA in vivo; experiment: Selectivity index (LD50 Hek293/PMBC divided by MIC S. aureus 2); assay type: cell-based; settings: lower LD50 of Hek293 and PMBC (converted to μg/mL) divided by MIC against S. aureus 2, MRSA in vivo
E1 = experiment: MIC determination (bacteria), strain E1; assay type: cell-based, enterococcus; settings: 2-fold broth dilution; for MIC E1: Table 1
Summary of the method: as §2

S4 = experiment: MIC determination (bacteria), strain S4; assay type: cell-based, S. aureus; settings: 2-fold broth dilution; for MIC: Staphylococcus aureus, Table 2; for MIC S4: Table 1
Summary of the method: as §2

[7] = read-out: MIC against the other strains
[8] = all strains (S1, S26, S4, S2, E1, E2, P1, P9, P9B, H3, H4), read-out: MIC for all strains
[9] = human embryonic kidney 293 cells

Chain of E. Coli RNAP (P0A8V2 whole entry): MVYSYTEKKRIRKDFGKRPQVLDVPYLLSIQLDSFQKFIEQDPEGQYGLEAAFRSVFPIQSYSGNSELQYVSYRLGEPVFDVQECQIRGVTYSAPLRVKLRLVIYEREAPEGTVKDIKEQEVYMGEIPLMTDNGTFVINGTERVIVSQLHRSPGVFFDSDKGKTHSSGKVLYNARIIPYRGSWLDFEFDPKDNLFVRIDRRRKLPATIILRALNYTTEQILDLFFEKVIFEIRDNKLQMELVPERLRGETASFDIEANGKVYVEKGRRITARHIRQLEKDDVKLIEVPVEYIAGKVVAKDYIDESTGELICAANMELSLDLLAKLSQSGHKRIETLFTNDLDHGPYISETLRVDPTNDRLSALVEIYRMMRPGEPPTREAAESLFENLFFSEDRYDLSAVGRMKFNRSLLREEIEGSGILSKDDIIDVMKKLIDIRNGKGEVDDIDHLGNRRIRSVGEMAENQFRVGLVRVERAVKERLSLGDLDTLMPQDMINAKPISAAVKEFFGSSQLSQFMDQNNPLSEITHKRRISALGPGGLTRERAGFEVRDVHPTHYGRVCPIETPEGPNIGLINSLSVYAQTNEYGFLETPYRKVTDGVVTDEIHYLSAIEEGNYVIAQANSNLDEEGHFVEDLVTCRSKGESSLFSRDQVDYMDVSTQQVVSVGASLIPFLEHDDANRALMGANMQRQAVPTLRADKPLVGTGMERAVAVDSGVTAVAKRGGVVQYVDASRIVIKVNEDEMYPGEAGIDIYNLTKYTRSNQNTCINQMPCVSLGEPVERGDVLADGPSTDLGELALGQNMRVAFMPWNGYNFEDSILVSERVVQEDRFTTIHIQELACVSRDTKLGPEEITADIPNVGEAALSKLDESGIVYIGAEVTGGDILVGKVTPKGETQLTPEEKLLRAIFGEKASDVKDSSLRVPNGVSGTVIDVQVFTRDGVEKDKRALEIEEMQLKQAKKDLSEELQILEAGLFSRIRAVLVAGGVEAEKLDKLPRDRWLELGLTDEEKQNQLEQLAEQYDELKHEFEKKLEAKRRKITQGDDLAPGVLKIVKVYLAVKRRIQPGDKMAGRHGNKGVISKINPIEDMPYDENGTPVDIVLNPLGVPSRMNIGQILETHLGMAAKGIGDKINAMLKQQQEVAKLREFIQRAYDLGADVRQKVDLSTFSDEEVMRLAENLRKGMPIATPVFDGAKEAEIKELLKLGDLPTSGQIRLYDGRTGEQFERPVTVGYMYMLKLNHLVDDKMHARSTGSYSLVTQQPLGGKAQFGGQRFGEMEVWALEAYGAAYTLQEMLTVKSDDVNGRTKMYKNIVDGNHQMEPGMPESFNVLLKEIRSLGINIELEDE
Chain of E. Coli RNAP (P0A8T7 whole entry): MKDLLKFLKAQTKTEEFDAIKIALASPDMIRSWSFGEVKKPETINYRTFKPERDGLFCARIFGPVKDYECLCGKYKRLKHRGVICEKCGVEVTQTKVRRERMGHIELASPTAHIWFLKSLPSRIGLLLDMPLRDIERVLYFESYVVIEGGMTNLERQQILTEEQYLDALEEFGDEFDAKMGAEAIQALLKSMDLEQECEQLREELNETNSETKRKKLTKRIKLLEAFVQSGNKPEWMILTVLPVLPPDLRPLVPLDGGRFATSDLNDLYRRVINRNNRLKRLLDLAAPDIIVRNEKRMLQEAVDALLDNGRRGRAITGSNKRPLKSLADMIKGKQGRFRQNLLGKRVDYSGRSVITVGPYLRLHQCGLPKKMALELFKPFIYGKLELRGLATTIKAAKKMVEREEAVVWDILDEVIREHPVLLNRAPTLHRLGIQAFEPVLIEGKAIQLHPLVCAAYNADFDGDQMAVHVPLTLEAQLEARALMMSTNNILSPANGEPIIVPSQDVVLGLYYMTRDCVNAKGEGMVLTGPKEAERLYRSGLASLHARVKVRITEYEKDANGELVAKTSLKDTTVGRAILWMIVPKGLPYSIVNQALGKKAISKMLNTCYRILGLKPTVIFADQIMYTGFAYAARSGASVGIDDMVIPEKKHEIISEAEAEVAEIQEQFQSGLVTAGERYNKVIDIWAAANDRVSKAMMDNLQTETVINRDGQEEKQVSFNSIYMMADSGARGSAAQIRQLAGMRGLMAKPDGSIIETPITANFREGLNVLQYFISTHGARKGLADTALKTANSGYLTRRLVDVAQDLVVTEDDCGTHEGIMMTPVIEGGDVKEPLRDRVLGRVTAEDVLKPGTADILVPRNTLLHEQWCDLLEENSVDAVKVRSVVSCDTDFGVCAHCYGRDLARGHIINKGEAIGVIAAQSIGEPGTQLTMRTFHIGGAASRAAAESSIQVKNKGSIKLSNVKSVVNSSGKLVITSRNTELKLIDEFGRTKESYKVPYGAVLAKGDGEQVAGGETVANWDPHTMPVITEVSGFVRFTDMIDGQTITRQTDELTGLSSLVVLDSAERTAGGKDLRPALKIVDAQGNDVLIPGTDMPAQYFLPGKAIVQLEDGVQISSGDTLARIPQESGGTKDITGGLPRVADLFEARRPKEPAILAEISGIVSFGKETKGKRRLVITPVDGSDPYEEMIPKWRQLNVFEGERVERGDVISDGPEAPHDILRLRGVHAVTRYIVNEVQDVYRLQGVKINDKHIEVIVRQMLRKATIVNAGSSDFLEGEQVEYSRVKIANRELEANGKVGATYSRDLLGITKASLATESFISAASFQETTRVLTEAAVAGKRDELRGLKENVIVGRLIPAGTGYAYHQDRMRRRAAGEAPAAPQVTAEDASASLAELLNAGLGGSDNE
Chain of E. Coli RNAP (P0A7Z4 whole entry partner): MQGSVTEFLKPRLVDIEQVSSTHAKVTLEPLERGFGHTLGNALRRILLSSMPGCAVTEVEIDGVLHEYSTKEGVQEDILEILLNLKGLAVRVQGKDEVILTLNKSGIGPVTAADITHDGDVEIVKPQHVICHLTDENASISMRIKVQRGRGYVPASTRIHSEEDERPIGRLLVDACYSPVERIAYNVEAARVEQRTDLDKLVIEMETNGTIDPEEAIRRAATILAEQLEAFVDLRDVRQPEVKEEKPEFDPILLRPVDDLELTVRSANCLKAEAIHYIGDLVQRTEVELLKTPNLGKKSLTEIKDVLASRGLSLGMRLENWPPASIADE
Chain of E. Coli RNAP (P0A800 whole entry partner): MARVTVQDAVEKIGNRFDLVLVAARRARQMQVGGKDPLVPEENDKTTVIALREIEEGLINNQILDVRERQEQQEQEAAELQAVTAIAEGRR

| Structure (SMILES) | IC50 (E. Coli RNAP) [µM] | MIC (H4) [µg/mL] | MIC (all strains; [8]) [µg/mL] | MIC (S1) [µg/mL] | MIC [1] [µg/mL] | Hek293 (LD50, μM) ([2]; human) [µM] | MIC (S26) [µg/mL] | MIC (P9B) [µg/mL] | MIC (P9) [µg/mL] | MIC (P1) [µg/mL] | SOL [3] [µM] | PMBC (LD50, μM) ([4]; human) [µM] | RBC membrane lysis activity (active/inactive) [5] | MIC (H3) [µg/mL] | MIC (E2) [µg/mL] | SI (Selectivity index) [6] | MIC (S4) [µg/mL] | other results |
| --- | --- | --- | --- | --- | --- | --- | --- | --- | --- | --- | --- | --- | --- | --- | --- | --- | --- | --- |
| CC12CC3CC(C)(C1)CC(C/C(O)=C1\C(=O)[C@@H]4CCCC(=O)N4C1=O)(C3)C2 [29a] | > 100 | 16 (≈ 43.1 µM) |  |  |  |  |  |  |  |  |  |  |  |  |  |  |  | MIC (all strains; [7]): > 32 µg/mL |
| CSCCC1C(=O)/C(=C(/O)C[C@@H]2OC(C)(C)OC2=O)C(=O)N1C(=O)CC(C)CC(C)(C)C (some centres unmarked) [31h] |  |  | > 32 |  |  |  |  |  |  |  |  |  |  |  |  |  |  |  |
| CCCC(=O)N1CC(=O)/C(=C(/O)CCNS(=O)(=O)c2ccccc2)C1=O [28j] |  |  | > 32 |  |  |  |  |  |  |  |  |  |  |  |  |  |  |  |
| CCCCCCC/C=C/C(=O)N1C(=O)/C(=C(\O)C[C@@H]2OC(C)(C)OC2=O)C(=O)C1CC(C)C (some centres unmarked) [30c] | 85 |  | > 32 |  |  |  |  |  |  |  |  |  |  |  |  |  |  |  |
| CSCCC1C(=O)/C(=C(/O)CCCOc2ccc(Cl)cc2C)C(=O)N1C(=O)CC(C)CC(C)(C)C (centres unmarked) [31j] | 91 | 8 (≈ 15.3 µM) |  | 0.5 (≈ 0.954 µM) | 0.5 (≈ 0.954 µM) | 10.1 | 1 (≈ 1.91 µM) | 8 (≈ 15.3 µM) | 0.25 (≈ 0.477 µM) | 0.5 (≈ 0.954 µM) | >300 | 30.3 | Active | > 64 | 0.25 (≈ 0.477 µM) | <11 | 1 (≈ 1.91 µM) | IC50 (S. aureus membrane; Staphylococcus aureus): > 100 µM; MIC (E1; Enterococcus, Table 2): 1 µg/mL (≈ 1.91 µM) |
| Cc1cc(Cl)ccc1OCCC/C(O)=C1\C(=O)CCN(C(=O)c2ccccc2)C1=O [19d] |  | 8 (≈ 18.7 µM) |  | 2 (≈ 4.67 µM) | 4 (≈ 9.35 µM) | 90.9 | 4 (≈ 9.35 µM) | 4 (≈ 9.35 µM) | 1 (≈ 2.34 µM) | 2 (≈ 4.67 µM) | >300 | 90.9 |  | 16 (≈ 37.4 µM) | 4 (≈ 9.35 µM) | 9.7 | 4 (≈ 9.35 µM) |  |
| CCCCCCCCCCCC(O)=C1C(=O)CCN(C(=O)c2ccccc2)C1=O [25b] | 86 |  |  |  |  |  |  |  |  |  | >300 |  | Inactive^d |  |  |  |  | MIC S1 (S1): 0.5 µg/mL (≈ 1.25 µM); MIC S2 [1]: 0.5 µg/mL (≈ 1.25 µM); Hek293 (LD50, μM) [2, 9]: >90.9 µM; MIC S26 (S26): 1 µg/mL (≈ 2.5 µM); MIC P9B (P9B): 1 µg/mL (≈ 2.5 µM); MIC P9 (P9): 0.25 µg/mL (≈ 0.626 µM); MIC P1 (P1): 0.25 µg/mL (≈ 0.626 µM); PMBC (LD50, μM) ([4]; human peripheral blood cells): >90.9 µM; MIC H3 (H3): 8 µg/mL (≈ 20 µM); MIC E2 (E2): 0.5 µg/mL (≈ 1.25 µM); IC50 (S. aureus membrane): 94.4 µM; MIC H4 (H4): 4 µg/mL (≈ 10 µM); MIC E1 (E1): 0.25 µg/mL (≈ 0.626 µM); MIC S4 (S4): 0.5 µg/mL (≈ 1.25 µM) |
| CCC/C=C/C(=O)N1CC(=O)/C(=C(/O)CC2C[C@@H](C(C)=O)C2(C)C)C1=O (some centres unmarked) [27q] |  | 32 (≈ 88.5 µM) |  |  |  |  |  |  |  |  |  |  |  |  |  |  |  | MIC (all strains; [7]): > 32 µg/mL |
| CCCCCC(O)=C1C(=O)C(CCSC)N(C(=O)CC(C)CC(C)(C)C)C1=O (centres unmarked) [24i] | 33 |  |  |  |  |  |  |  |  |  | >300 |  |  |  |  |  |  | MIC S1 (S1): 0.25 µg/mL (≈ 0.607 µM); MIC S2 [1]: 0.5 µg/mL (≈ 1.21 µM); Hek293 (LD50, μM) [2, 9]: 10.1 µM; MIC S26 (S26): 1 µg/mL (≈ 2.43 µM); MIC P9B (P9B): 2 µg/mL (≈ 4.86 µM); MIC P9 (P9): 0.25 µg/mL (≈ 0.607 µM); MIC P1 (P1): 0.25 µg/mL (≈ 0.607 µM); PMBC (LD50, μM) ([4]; human peripheral blood cells): 30.3 µM; RBCL (IC50, μM) [5]: Active; MIC H3 (H3): 8 µg/mL (≈ 19.4 µM); MIC E2 (E2): 0.25 µg/mL (≈ 0.607 µM); IC50 (S. aureus membrane): > 100 µM; MIC H4 (H4): 2 µg/mL (≈ 4.86 µM); MIC E1 (E1): 0.5 µg/mL (≈ 1.21 µM); MIC S4 (S4): 0.5 µg/mL (≈ 1.21 µM) |
| CSCCC1C(=O)/C(=C(/O)CC2CC3CCC2C3)C(=O)N1C(=O)CC(C)CC(C)(C)C (centres unmarked) [31g] | > 100 | 2 (≈ 4.45 µM) |  | 0.12 (≈ 0.267 µM) | 0.5 (≈ 1.11 µM) | 10.1 | 0.5 (≈ 1.11 µM) | 2 (≈ 4.45 µM) | 0.25 (≈ 0.556 µM) | 0.5 (≈ 1.11 µM) | >300 | 30.3 | Active | 32 (≈ 71.2 µM) | 0.25 (≈ 0.556 µM) | <9.1 | 0.5 (≈ 1.11 µM) | IC50 (S. aureus membrane; Staphylococcus aureus): > 100 µM |
